{
  "source": "patent US9610245B2",
  "about": "“Ophthalmic composition” (Drug Delivery Solutions Limited, priority 2011, dated 2017)",
  "assay": "Ex vivo permeation of cyclosporine through cornea, Ussing diffusion cells",
  "assay_type": "in vitro ADME, rabbit",
  "conditions": "excipient changed in or added to the Example 1 formulation",
  "protocol": "In order to determine the permeation of cyclosporine (CsA) formulations into and through the cornea, ex vivo studies were conducted. In brief, the corneas from rabbits were taken and mounted onto Ussing diffusion cells incubated at 37° C. and perfused with carbogen (95/5 oxygen/[…]). Approximately 3 ml sample was placed in the donor side of the chamber, 3 ml Ringers solution (6.5 g NaCl, 0.42 g KCl, 0.25 g CaCl2 and […] of Sodium bicarbonate per litre; isotonic solution pH 7.2) was placed in the receptor side of the chamber.\nPermeation across the cornea was determined by collecting 200 μl receptor phase at the appropriate time points. At time zero and at 8 hours (termination of the experiment) 100 μl of sample from the donor phase was taken for analysis. Corneas were collected and split into the stomal and epithelial parts. The cyclosporine in the cornea sections were analysed after extraction into 50/50 methanol/water. Levels of CsA in the receptor chamber, the cornea and in the donor chamber were determined by HPLC analysis. Formulations used were based on Example 1. The table below summarises the changes made to this formulation.",
  "data": [
    {"substance": "benzalkonium chloride", "values": [
      {"measurement": "effect of excipient on permeation of CsA into and through the cornea", "result": "no significant effect"}
    ]}
  ]
}
